Structures are written as SMILES.

In the assay the test system is HuH7. The experiment in a line: CellTiter-Glo luminescent cell viability (proliferation) assay, HuH7. In kind it is cell-based. The note with it: inhibition of HuH7 (human hepatoma) proliferation, 48 hours incubation, 10% FCS. As to the method:
To practically assess the impact of the thiazole-piperidine derivatives, e.g. derivatives of piperidinyl-thiazole carboxylic acid and/or piperidinyl thiazole carboxamide, in the treatment and/or prevention of diseases according to the invention, the inhibition of cell proliferation is determined by using a luminescent cell viability assay (CellTiter-Glo®; Promega, Madison, USA). The assay is based on the relation that the ATP content is directly proportional to the number of cells present in the culture. The CellTiter-Glo® assay is performed to measure the proliferation rate of human hepatoma (HuH7, PLC/PRF/5, Hep3B, SK-Hep1), human hepatoblastoma (HepG2), human colon carcinoma (CX-2), human breast cancer (SK-Br-3), human ovarian carcinoma (HeLa) and human pancreatic carcinoma (DAN-G) cell lines. […] In particular, the compound according to formula (1) wherein R^1 is 4-isopropoxycarbonylphenyl, R^2 is 3-indolylmethyl, R^3 is hydrogen, R^4 is hydrogen, n is zero, A is a single bond, B is carbonyl, and wherein the residue R^1NR^3CO is connected to the carbon atom bound to nitrogen of the thiazole ring (compound no. XI in Table 1) inhibits proliferation of the human cell lines HepG2 and Hep3B with 10.8 and 3.5 µM, respectively.
To determine the inhibition of cell proliferation a luminescent cell viability assay (CellTiter-Glo®; Promega, Madison, USA) is implemented. The assay is based on the relation that the ATP content is directly proportional to the number of cells present in the culture (Technical Bulletin No. 228 "CellTiter-Glo® Luminescent Cell viability Assay", Revised 2/04. Promeg, Madison, USA). The CellTiter-Glo® assay is performed to measure the proliferation rate of human hepatoma (HuH7, PLC/PRF/5, Hep3B, SK-Hep1), human hepatoblastoma (HepG2), human colon carcinoma (CX-2), human breast cancer (SK-Br-3), human ovarian carcinoma (HeLa) and human pancreatic carcinoma (DAN-G) cell lines. 3000 viable cells (viability ≥ 90%) are seeded in opaque-walled 96-well plates and incubated for 24 hours in DMEM, supplemented with 2 mM glutamin. Cell proliferation is stimulated by addition of FCS to a final concentration of 10% (v/v). Simultaneously the compounds (see Table 1 and 2) are added in a concentration range of 0 to 20 µM. Triplicates are measured for each concentration. Cells and compounds (see Table 1 and 2) are incubated for a period of 48 hours in a volume of 140 µl cell culture medium (10% (v/v) FCS, 2 mM Glutamin, DMEM). The compounds according to the invention are dissolved in 60% to 100% (v/v) DMSO at a concentration of 2 mM. The final DMSO concentration under assay conditions never exceeds 1% (v/v). Throughout the assay cells are kept in a humidified incubator (95% rH) at 37°C and 5% CO2.
The final cell number is determined after 48 hour of incubation. Therefore 140 µl CellTiter-Glo®Reagent is added in each well. The contents are mixed on an orbital shaker for 2 minutes at room temperature. After subsequent incubation for additional 10 minutes at room temperature the luminescence signal is recorded within 30 min. EC50 values are calculated using the four-parametric Hill equation (Sigma Plot). Control values are: • 1) 10% (v/v) FCS, 2 mM glutamin, DMEM -> maximum cell number • 2) 2 mM glutamin, DMEM -> initial cell number

Compound `O=C(Nc1cccc(-c2cnco2)c1)c1csc(C2CCN(C(=O)Cc3c[nH]c4ccccc34)CC2)n1` [IX] displayed an EC50 (Huh-7) of 12.1 µM.
`O=C(Nc1cc(-c2ccccc2)[nH]n1)c1csc(C2CCN(C(=O)Cc3c[nH]c4ccccc34)CC2)n1` [I] had an EC50 (Huh-7) of 5.35 µM.
In the case of `O=C(Nc1ccc2c(c1)OCCO2)c1csc(C2CCN(C(=O)NC3C=C(c4ccccc4)N=N3)CC2)n1` (centres unmarked) [LII], the midpoint of the response (Homo sapiens, Huh-7, 48 h), the EC50, lay at 19.5 µM.
`Cn1nc(-c2ccccc2)cc1NC(=O)c1csc(C2CCN(C(=O)C3CCCCC3)CC2)n1` [LIV] came in with a concentration giving a half-maximal response (EC50) (Homo sapiens, Huh-7, 48 h) of 5.5 µM.
The compound `O=C(Nc1ccc2c(c1)C(=O)OC2)c1csc(C2CCN(C(=O)CC3C=Nc4ccccc43)CC2)n1` (centres unmarked) [LIX] displayed an EC50 (Homo sapiens, Huh-7, 48 h) of 7.13 µM.
In the case of `O=C(CC1C=Nc2ccccc21)N1CCC(c2nc(C(=O)N3CCN(c4ccc(Cl)c(Cl)c4)CC3)cs2)CC1` (centres unmarked) [LI], the concentration for a half-maximal effect (EC50) (Homo sapiens, Huh-7, 48 h) came to 4.9 µM. This EC50 and that of the compound before are within 1.5-fold of each other.
Regarding `CCOc1cccc(C(=O)NNC(=O)c2csc(C3CCN(C(=O)CC4C=Nc5ccccc54)CC3)n2)c1` (centres unmarked) [LVIII], under “Homo sapiens, Huh-7, 48 h”, a half-maximal response (EC50) required 4.58 µM.
On the same count and under the same terms, as for `C#CC1(NC(=O)c2csc(C3CCN(C(=O)CC4C=Nc5ccccc54)CC3)n2)CCCCC1` (centres unmarked) [LVII], the figure is 5.1 µM; as for `Cc1ccc(C(=O)NNC(=O)c2csc(C3CCN(C(=O)CC4C=Nc5ccccc54)CC3)n2)s1` (centres unmarked) [LV], 4.04 µM; as for `C#CCOC(=O)N1CCC(c2nc(C(=O)Nc3[nH]nc(C)c3-c3ccccc3)cs2)CC1` [L], 5.4 µM.
The same measure, in the same setting: as for `CCOc1ccccc1N1CCN(C(=O)c2csc(C3CCN(C(=O)CC4C=Nc5ccccc54)CC3)n2)CC1` (centres unmarked) [XII], the figure is 13.4 µM.
`Cc1csc(NC(=O)c2csc(C3CCN(C(=O)CC4C=Nc5ccccc54)CC3)n2)c1C(N)=O` (centres unmarked) [XIV]: the EC50 (Homo sapiens, Huh-7, 48 h) was determined as 12.9 µM. The EC50 values of the last two compounds are within 1.5-fold of each other.
Turning to `CS(=O)(=O)c1ccc(CNC(=O)c2csc(C3CCN(C(=O)CC4C=Nc5ccccc54)CC3)n2)cc1` (centres unmarked) [XIX], where the note is “Homo sapiens, Huh-7, 48 h”, the 50% effective concentration (EC50) came to 8.5 µM.
Still for that read-out and setting: for `O=C(CC1C=Nc2ccccc21)N1CCC(c2nc(C(=O)N3CCN(c4c(Cl)cncc4Cl)CC3)cs2)CC1` (centres unmarked) [XLIII] the value was 4.74 µM.
The same measure, in the same setting: as for `Cc1cnc(NC(=O)c2csc(C3CCN(C(=S)Nc4ccc(N(C)C)cc4)CC3)n2)s1` [XLII], the figure is 2.2 µM; as for `O=C(Nc1cc(-c2ccccc2)n[nH]1)c1csc(C2CCN(C(=O)c3cc4ccccc4o3)CC2)n1` [XLIV], 2.53 µM; as for `Cn1nc(-c2ccccc2)cc1NC(=O)c1csc(C2CCN(C(=O)c3c(F)cccc3Cl)CC2)n1` [XLIX], 3.03 µM.
Take `COc1ccc(CNC(=O)c2csc(C3CCN(C(=O)CC4C=Nc5ccccc54)CC3)n2)cc1` (centres unmarked) [XLI]: the EC50 (Homo sapiens, Huh-7, 48 h) was found to be 5.9 µM. Compared with the last compound, the EC50 is about 1.9-fold higher.
Under “Homo sapiens, Huh-7, 48 h”, `Cc1nc(C)c(C(=O)N2CCC(c3nc(C(=O)Nc4cc(-c5ccco5)n[nH]4)cs3)CC2)s1` [XLVIII] returned an EC50 of 13.9 µM.
As to `Cc1ccc(NC(=O)c2csc(C3CCN(C(=O)CC4C=Nc5ccccc54)CC3)n2)c(F)c1` (centres unmarked) [XLVI], the EC50 (Homo sapiens, Huh-7, 48 h) stood at 4 µM. This EC50 is about 3.5-fold lower than that of the compound before.
For the compound `CN(NC(=O)c1csc(C2CCN(C(=O)CC3C=Nc4ccccc43)CC2)n1)c1cnc2ccccc2n1` (centres unmarked) [XLV], the concentration giving a half-maximal response (EC50) (Homo sapiens, Huh-7, 48 h) came to 7.56 µM. Against the preceding compound, the EC50 is about 1.9-fold higher.
The compound `Cn1nc(-c2cccs2)cc1NC(=O)c1csc(C2CCN(C(=O)c3ccccc3C(F)(F)F)CC2)n1` [XVIII] had a half-maximal effective concentration (EC50) (Huh-7) of 13.4 µM.
As to `COc1ccccc1C(=O)NNC(=O)c1csc(C2CCN(C(=O)CC3C=Nc4ccccc43)CC2)n1` (centres unmarked) [XXIII], it took 16.7 µM to reach a half-maximal effect (Homo sapiens, Huh-7, 48 h) (EC50).
Turning to `Cc1nc(C)c(C(=O)N2CCC(c3nc(C(=O)Nc4cc(-c5ccccc5)nn4C)cs3)CC2)s1` [XXII], the concentration for a half-maximal effect (EC50) (Huh-7) was 5.4 µM.
Regarding `O=C(NC1CCN(Cc2ccccc2)C1)c1csc(C2CCN(C(=O)CC3C=Nc4ccccc43)CC2)n1` (centres unmarked) [XXIX], the EC50 (Homo sapiens, Huh-7, 48 h) is 2.7 µM. This lies in the single-digit micromolar range.
With `C#CCOC(=O)N1CCC(c2nc(C(=O)Nc3cc(-c4ccccc4)n[nH]3)cs2)CC1` [XXVIII], the EC50 (Huh-7) was found to be 2.27 µM. This lies in the single-digit micromolar range.
Regarding `COc1ccc(CN2CCN(C(=O)c3csc(C4CCN(C(=O)CC5C=Nc6ccccc65)CC4)n3)CC2)cc1` (centres unmarked) [XXVII], for the setting “Homo sapiens, Huh-7, 48 h”, the EC50 was determined as 35.6 µM.
The same measure, in the same setting: as for `Cc1ccc(OCC(=O)N2CCC(c3nc(C(=O)Nc4nccs4)cs3)CC2)cc1C` [XXV], the figure is 5.8 µM.
Compound `CC(=O)c1cc2cc(NC(=O)c3csc(C4CCN(C(=O)CC5C=Nc6ccccc65)CC4)n3)ccc2o1` (centres unmarked) [XXXII] returned a half-maximal effective concentration (EC50) (Homo sapiens, Huh-7, 48 h) of 3.08 µM. This EC50 lies about 1.9-fold lower than the previous one.

In general, EC50 refers to the midpoint of the concentration-response curve. A low value points to a more potent agent.

The values are drawn from patent EP1832586A1, “Thiazole-piperidine derivatives in treatment of diseases of liver and the pancreas” (Oridis Biomed Forschungs- und Entwicklungs GmbH, priority 2006, dated 2007).
